Results published in ChEMBL document CHEMBL2177061, “Factors influencing the specificity of inhibitor binding to the human and malaria parasite dihydroorotate dehydrogenases” (J Med Chem, 2012).
Numbering of substitutions follows the chain as printed.

What was measured:
[1] = test system: T1, Dihydroorotate dehydrogenase (quinone), mitochondrial (Plasmodium falciparum (isolate 3D7)), Q08210 [C276Y]; experiment: Inhibition of Plasmodium falciparum […] dehydrogenase C276Y mutant expressed in Escherichia coli BL21(DE3) using […] as substrate at 100 uM by DCIP-based colorimetric analysis
T1 sequence (whole entry): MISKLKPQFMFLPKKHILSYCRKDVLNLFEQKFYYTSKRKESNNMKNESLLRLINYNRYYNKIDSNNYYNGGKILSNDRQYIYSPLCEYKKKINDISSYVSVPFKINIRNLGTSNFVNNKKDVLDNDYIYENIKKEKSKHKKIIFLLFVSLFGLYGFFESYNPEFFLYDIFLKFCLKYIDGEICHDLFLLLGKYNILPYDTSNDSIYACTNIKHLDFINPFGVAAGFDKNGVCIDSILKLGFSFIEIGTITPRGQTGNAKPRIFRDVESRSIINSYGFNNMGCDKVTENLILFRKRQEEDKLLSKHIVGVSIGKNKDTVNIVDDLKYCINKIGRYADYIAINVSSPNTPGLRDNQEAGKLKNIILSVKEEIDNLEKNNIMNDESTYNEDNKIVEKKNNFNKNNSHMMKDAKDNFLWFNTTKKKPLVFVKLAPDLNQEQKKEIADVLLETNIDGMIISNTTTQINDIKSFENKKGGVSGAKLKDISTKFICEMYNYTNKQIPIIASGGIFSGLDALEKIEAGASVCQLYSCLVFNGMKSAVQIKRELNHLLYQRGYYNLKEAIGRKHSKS

Homo sapiens [2] = species: Homo sapiens; experiment: Ratio of IC50 for human dihydrofolate dehydrogenase Y147A mutant to IC50 for human wild type dihydrofolate dehydrogenase
[3] = test system: T2, Dihydroorotate dehydrogenase (quinone), mitochondrial (Plasmodium falciparum (isolate 3D7)), Q08210 [F188Y]; experiment: Inhibition of Plasmodium falciparum […] dehydrogenase F188Y mutant expressed in Escherichia coli BL21(DE3) using […] as substrate at 100 uM by DCIP-based colorimetric analysis
T2 sequence (whole entry): T1 sequence (whole entry) with F188Y, Y276C

Homo sapiens [4] = species: Homo sapiens; experiment: Ratio of IC50 for human dihydrofolate dehydrogenase Y147C mutant to IC50 for human wild type dihydrofolate dehydrogenase

CCc1cc(O)n2nc(SCc3cc(Cl)ccc3Cl)nc2n1
inhibition [1]: < 50% | Ratio IC50 (Homo sapiens [2]): 16 | inhibition [3]: < 50% | Ratio IC50 (Homo sapiens [4]): 9
